In US10538528B2, “5H-pyrrolo[2,3-D]pyrimidin-6(7H)-one derivative” (Taiho Pharmaceutical Co., Ltd., priority 2016, dated 2020):

What was measured:
Rsk1 = Rsk1 (Homo sapiens (Human), UniProt Q15418); test: Inhibitory effects on Rsk1 kinase activity (QSS Assist FP assay kit); format: biochemical; details: Rsk1, ATP 30 μM; read-out: Rsk inhibitory activity IC50
Method: Inhibitory activity of the compound according to the present invention on Rsk1 kinase activity in vitro was assayed using the QSS Assist™ FP assay kit (Carna Biosciences, Inc.).
In the inhibition assay of inhibitory activity of the compound, the test compound was diluted by serial dilution with dimethyl sulfoxide (DMSO). Subsequently, an Rsk1 protein, a substrate peptide (final concentration: 100 nM), magnesium chloride (final concentration: 10 mM), ATP (final concentration: 30 μM), and the solution of the test compound in DMSO (DMSO final concentration: 5%) were added to the kinase reaction buffer (20 mM HEPES (pH 7.4), 2 mM dithiothreitol, 0.01% Tween-20), and the mixture was incubated at 25° C. for 40 minutes to perform the kinase reaction. The IMAP Progressive Binding Reagent diluted to 400-fold with the IMAP Progressive Binding Buffer A (Molecular Devices, LLC) was added to terminate the kinase reaction.

S6K1 = S6K1 (Homo sapiens (Human), UniProt P23443); test: Inhibitory effects on S6K1 kinase activity (QSS Assist FP assay kit); format: biochemical; details: S6K1, ATP 25 μM; read-out: S6K inhibitory activity IC50
Method: Inhibitory activity of the compound according to the present invention on S6K1 kinase activity in vitro was assayed using the QSS Assist™ FP assay kit (Carna Biosciences, Inc.).
In the inhibition assay for inhibitory activity of the compound, the test compound was diluted by serial dilution with dimethyl sulfoxide (DMSO). Subsequently, an S6K protein, a substrate peptide (final concentration: 100 nM), magnesium chloride (final concentration: 5 mM), ATP (final concentration: 25 μM), and the solution of the test compound in DMSO (final DMSO concentration: 5%) were added to the kinase reaction buffer (20 mM HEPES (pH 7.4), 2 mM dithiothreitol, 0.01% Tween-20), and the mixture was incubated at 25° C. for 30 minutes to perform the kinase reaction. The IMAP Progressive Binding Reagent diluted to 400-fold with the IMAP Progressive Binding Buffer A (Molecular Devices, LLC) was added thereto to terminate the kinase reaction. The reaction product was allowed to stand at room temperature in the dark for 120 minutes and assayed with the use of PHERAstar (BMG LABTECH; excitation wavelength: 485 nm; detection wavelength: 520 nm). The level of phosphorylation reaction was determined based on the degree of fluorescence polarization, and the concentration of the compound at which phosphorylation could be inhibited by 50% was defined as the IC50 level (nM) and shown in Table 4.

human Akt1 = human Akt1 (Homo sapiens (Human), UniProt P31749); test: Inhibitory effects on Akt1 kinase activity (TR-FRET, biotinylated Crosstide); format: biochemical; details: Akt1, ATP 150 μM, pre-incubation 120 minutes at 25° C.; read-out: AKT inhibitory activity IC50
Method: Akt1 was prepared and assays of inhibitory activity of the compound according to the present invention against Akt1 kinase activity in vitro were conducted according to the method described in Biochem. J., vol. 385, pp. 399-408, 2005 and Cancer Res., vol. 68, pp. 2366-2374, 2008. In the preparation of Akt1 protein, human Akt1 tagged with the middle T antigen was expressed in an insect cell Sf9, Akt1 was prepared through affinity purification and activation by PDK1, and the resultant was stored at −80° C. until the inhibition assays of the compounds. In the inhibition assay of the compounds, Akt1 and the compound according to the present invention were subjected to pre-incubation at 25° C. for 120 minutes in a reaction buffer (15 mM Tris-HCl, pH 7.5, 0.01% Tween-20, 2 mM DTT). Subsequently, biotinylated Crosstide (biotin-[…], Millipore), MgCl2, and ATP were added as substrates at the final concentration of 500 nM, 10 mM, and 150 μM, respectively, and the reaction was allowed to proceed at 25° C. for 60 minutes. EDTA was added to the final concentration of 40 mM to terminate the reaction, a detection liquid containing the Eu-anti-phospho-Crosstide antibody (PerkinElmer) and SureLight APC-SA (PerkinElmer) at the final concentration of 0.5 nM and 62.5 nM, respectively was added, and the reaction was allowed to proceed at room temperature for 2 hours. In the end, the fluorescence levels irradiated with an excitation light of 337 nm were assayed at two different wavelength levels (i.e., 620 nm and 665 nm) using PI-HERAstar FS (BMG LABTECH) or PHERAstar (BMG LABTECH). The level of the phosphorylation reaction was determined on the basis of the ratio of fluorescence levels at two wavelength levels, and the concentration of the compound at which phosphorylation could be inhibited by 50% was defined as the IC50 level (nM) and shown in Table 2.
As reference compounds, conventional Comparative Example A (WO 2010/056563 (Example 31)) and Comparative Example B having inhibitory activity against Akt were used.

[1] = system: RKO cells (human colon cancer cell lines); test: Cell growth inhibition study using RKO cells (CellTiter-Glo); format: cell-based; details: 72 h, 3 days
Method: The in vitro cell growth inhibition study using RKO cells (human colon cancer cell lines) was conducted as described below.
RKO cells (ATCC, Cat#: CRL-2577) cultured in a MEM medium (GIBCO, Cat#:10370-088) supplemented with 10% FBS, 1 mM L-glutamine (GIBCO, Cat#:25030), and 1 mM sodium pyruvate (GIBCO, Cat#:11360) were seeded in a 96-well flat bottom microplate (COSTAR, Cat#:3904) at 2×10^3 cells (150 μl) and cultured in an incubator containing 5% CO2 at 37° C. for 1 day. The compound according to the present invention subjected to serial dilution with dimethyl sulfoxide or dimethyl sulfoxide alone was added to a MEM medium containing 10% FBS, 1 mM L-glutamine, and 1 mM sodium pyruvate. The resultant medium containing the compound or dimethyl sulfoxide alone was added to the RKO cells in the culture plate by 50 μl/well at the final concentration of the compound to 10, 3, 1, 0.3, 0.1, 0.03, 0.01, 0.003, and 0 μM, respectively. Another RKO cell culture plate separately prepared was allowed to stand at room temperature for 30 minutes, then 100 μl of the medium was removed, and added 50 μl of CellTiter-Glo® 2.0 Assay (Promega, Cat#:G9242) to each well. After the plates were placed in the dark for 10 minutes, the luminescence level derived from viable cells in each well was measured by the Multimode Plate Reader (PerkinElmer, EnSpire). The cells treated with the compound or dimethyl sulfoxide alone were cultured at 37° C. in an incubator containing 5% CO2 for an additional 3 days. After incubation, the culture plate was placed at room temperature for 30 minutes, and 150 μl of the supernatant was removed from each well to adjust the amount of the remaining cell culture solution to 50 μl each. To 50 μl of the remaining cell culture solution, the equivalent amount of CellTiter-Glo® 2.0 Assay was added. After the cell culture plate was placed in the dark for 10 minutes, the luminescence level derived from viable cells in each well was assayed with the use of the Multimode Plate Reader. The cell growth rate was calculated by the formulae shown below and the concentration at which the cell growth rate became 50%; i.e., the concentration of the compound according to the present invention at which cell growth would be inhibited by 50% was determined (GI50 (nM)). Cell growth rate (%)=(T−C0)/(C−C0)×100, provided that T is equal to or greater than C0(T≥C0) Cell growth rate (%)=(T−C0)/C0×100, provided that T is less than C0(T<C0) C0: Luminescence level in each well when the compound is added (count per second) C: Luminescence level in each well when dimethyl sulfoxide is added alone (count per second) T: Luminescence level in each well when the test compound is added (count per second)
As control compounds, conventional Comparative Example A (WO 2010/056563 (Example 31)) and Comparative Example B having inhibitory activity against Akt were used.
The GI50 levels of representative compounds according to the present invention and reference compounds in RKO cells were evaluated, and the results are shown in Table 5.

S6K1, sequence (P23443 whole entry): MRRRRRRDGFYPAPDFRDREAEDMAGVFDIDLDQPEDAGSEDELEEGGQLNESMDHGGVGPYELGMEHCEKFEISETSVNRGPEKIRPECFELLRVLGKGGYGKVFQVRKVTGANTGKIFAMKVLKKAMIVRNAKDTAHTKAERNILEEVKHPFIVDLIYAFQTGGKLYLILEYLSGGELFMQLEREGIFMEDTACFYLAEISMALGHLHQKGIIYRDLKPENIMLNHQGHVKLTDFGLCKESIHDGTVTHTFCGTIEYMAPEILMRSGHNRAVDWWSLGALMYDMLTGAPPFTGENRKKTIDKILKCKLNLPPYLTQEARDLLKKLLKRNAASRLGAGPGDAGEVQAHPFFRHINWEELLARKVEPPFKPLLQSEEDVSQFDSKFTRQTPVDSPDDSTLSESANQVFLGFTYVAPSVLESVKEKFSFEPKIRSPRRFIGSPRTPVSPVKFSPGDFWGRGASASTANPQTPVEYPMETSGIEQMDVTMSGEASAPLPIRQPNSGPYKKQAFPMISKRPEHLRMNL
Rsk1, sequence (Q15418 whole entry): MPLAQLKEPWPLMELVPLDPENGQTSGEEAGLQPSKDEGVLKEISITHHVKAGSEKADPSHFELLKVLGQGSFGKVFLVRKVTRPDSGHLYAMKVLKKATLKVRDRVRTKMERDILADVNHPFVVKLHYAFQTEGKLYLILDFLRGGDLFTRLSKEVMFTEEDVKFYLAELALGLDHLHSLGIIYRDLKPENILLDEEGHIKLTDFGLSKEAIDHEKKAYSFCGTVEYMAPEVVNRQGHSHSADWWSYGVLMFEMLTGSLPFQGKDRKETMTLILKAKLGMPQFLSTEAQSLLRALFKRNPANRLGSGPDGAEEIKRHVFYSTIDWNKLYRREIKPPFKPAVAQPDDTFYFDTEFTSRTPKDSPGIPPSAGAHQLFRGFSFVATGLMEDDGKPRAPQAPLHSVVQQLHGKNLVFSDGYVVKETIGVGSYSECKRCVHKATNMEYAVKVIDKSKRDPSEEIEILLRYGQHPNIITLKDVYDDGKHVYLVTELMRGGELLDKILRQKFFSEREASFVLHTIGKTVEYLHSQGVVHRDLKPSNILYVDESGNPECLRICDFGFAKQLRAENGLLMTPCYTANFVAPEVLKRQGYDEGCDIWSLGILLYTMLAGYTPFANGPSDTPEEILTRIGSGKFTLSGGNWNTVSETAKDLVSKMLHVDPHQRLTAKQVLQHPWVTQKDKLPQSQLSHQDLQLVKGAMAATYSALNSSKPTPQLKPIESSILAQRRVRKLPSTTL
human Akt1, sequence (P31749 whole entry): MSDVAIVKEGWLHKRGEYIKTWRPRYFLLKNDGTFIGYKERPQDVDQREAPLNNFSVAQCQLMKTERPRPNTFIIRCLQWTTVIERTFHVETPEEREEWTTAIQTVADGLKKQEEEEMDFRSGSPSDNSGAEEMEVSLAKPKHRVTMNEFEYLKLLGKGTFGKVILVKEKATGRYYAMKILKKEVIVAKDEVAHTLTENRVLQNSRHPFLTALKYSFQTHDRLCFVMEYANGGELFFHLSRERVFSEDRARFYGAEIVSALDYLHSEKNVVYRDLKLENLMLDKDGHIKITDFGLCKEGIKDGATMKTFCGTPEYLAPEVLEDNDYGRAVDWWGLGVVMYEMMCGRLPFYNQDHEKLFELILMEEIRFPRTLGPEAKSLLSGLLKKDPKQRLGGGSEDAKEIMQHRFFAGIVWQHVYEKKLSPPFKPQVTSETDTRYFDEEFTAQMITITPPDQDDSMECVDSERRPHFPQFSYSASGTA

Compound	IC50 (Rsk1)	IC50 (S6K1)	IC50 (human Akt1)	GI50 [1]
CC1(C)C(=O)Nc2ncnc(N3CCC(c4nc(-c5nc(C(F)(F)F)no5)ccc4NCCN4CCCC4)CC3)c21 [Compound 44, 5,5-Dimethyl-4-(4-(3-((2-(pyrrolidin-1-yl)ethyl)amino)-6-(3-(trifluoromethyl)-1,2,4-oxadiazol-5-yl)pyridin-2-yl)piperidin-1-yl)-5H-pyrrolo[2,3-d]pyrimidin-6(7H)-one]	0.5 nM	0.4 nM	2.6 nM	102 nM
CC1(C)C(=O)Nc2ncnc(N3CCC(c4nc(-c5nnc(C(F)F)o5)ccc4NCCN4CCCC4)CC3)c21 [Compound 30, 4-(4-(6-(5-(Difluoromethyl)-1,3,4-oxadiazol-2-yl)-3-((2-(pyrrolidin-1-yl)ethyl)amino)pyridin-2-yl)piperidin-1-yl)-5,5-dimethyl-5H-pyrrolo[2,3-d]pyrimidin-6(7H)-one]	1.7 nM	0.5 nM	14.5 nM	82 nM
CC(C)(C)NCCNc1ccc(-c2noc(C(F)F)n2)nc1C1CCN(c2ncnc3c2C(C)(C)C(=O)N3)CC1 [Compound 41, 4-(4-(3-((2-(Tert-butylamino)ethyl)amino)-6-(5-(difluoromethyl)-1,2,4-oxadiazol-3-yl)pyridin-2-yl)piperidin-1-yl)-5,5-dimethyl-5H-pyrrolo[2,3-d]pyrimidin-6(7H)-one]	1.6 nM	0.3 nM	7.2 nM	86 nM
CC1C(=O)Nc2ncnc(N3CCC(c4cc(-c5cc(C(F)(F)F)nn5C)cnc4NCCN4CCCC4)CC3)c21 (stereo not shown) [Compound 27, 5-Methyl-4-(4-(5-(1-methyl-3-(trifluoromethyl)-1H-pyrazol-5-yl)-2-((2-(pyrrolidin-1-yl)ethyl)amino)pyridin-3-yl)piperidin-1-yl)-5H-pyrrolo[2,3-d]pyrimidin-6(7H)-one]	1.8 nM	–	1.6 nM	48 nM
CC1C(=O)Nc2ncnc(N3CCC(c4nc(-c5ccnc(F)c5)ccc4NCCN4CCCC4)CC3)c21 (stereo not shown) [Compound 13, 4-(4-(2′-Fluoro-5-((2-(pyrrolidin-1-yl)ethyl)amino)-[2,4′-bipyridin]-6-yl)piperidin-1-yl)-5-methyl-5H-pyrrolo[2,3-d]pyrimidin-6(7H)-one]	1.4 nM	0.4 nM	1.4 nM	111 nM
CC1C(=O)Nc2ncnc(N3CCC(c4nc(-c5ccoc5)ccc4NCCN4CCCC4)CC3)c21 (stereo not shown) [Compound 14, 4-(4-(6-(Furan-3-yl)-3-((2-(pyrrolidin-1-yl)ethyl)amino)pyridin-2-yl)piperidin-1-yl)-5-methyl-5H-pyrrolo[2,3-d]pyrimidin-6(7H)-one]	1.7 nM	0.9 nM	0.5 nM	118 nM
CC1C(=O)Nc2ncnc(N3CC=C(c4nc(-c5cncc(F)c5)ccc4NCCN4CCCC4)CC3)c21 (stereo not shown) [Compound 26, 4-(5-Fluoro-5′-((2-(pyrrolidin-1-yl)ethyl)amino)-5″,6″-dihydro-[3,2′:6′,4″-terpyridine-]-1″(2″H)-yl)-5-methyl-5H-pyrrolo[2,3-d]pyrimidin-6(7H)-one]	–	0.6 nM	–	124 nM
CC(C)(C)NCCNc1ccc(-c2nnc(C(F)(F)F)o2)nc1C1CCN(c2ncnc3c2C(C)(C)C(=O)N3)CC1 [Compound 32, 4-(4-(3-((2-(Tert-butylamino)ethyl)amino)-6-(5-(trifluoromethyl)-1,3,4-oxadiazol-2-yl)pyridin-2-yl)piperidin-1-yl)-5,5-dimethyl-5H-pyrrolo[2,3-d]pyrimidin-6(7H)-one]	–	–	–	89 nM
CC1C(=O)Nc2ncnc(N3CCC(c4nc(-c5nccs5)ccc4NCCN4CCCC4)CC3)c21 (stereo not shown) [Compound 24, 5-Methyl-4-(4-(3-((2-(pyrrolidin-1-yl)ethyl)amino)-6-(thiazol-2-yl)pyridin-2-yl)piperidin-1-yl)-5H-pyrrolo[2,3-d]pyrimidin-6(7H)-one]	–	0.6 nM	1.9 nM	130 nM
CC(C)(C)NCCNc1ccc(-c2cncc(F)c2)nc1C1CCN(c2ncnc3c2C(C)(C)C(=O)N3)CC1 [Compound 1, 4-(4-(5-((2-(Tert-butylamino)ethyl)amino)-5′-fluoro-[2,3′-bipyridin]-6-yl)piperidin-1-yl)-5,5-dimethyl-5H-pyrrolo[2,3-d]pyrimidin-6(7H)-one]	1.5 nM	0.4 nM	6.8 nM	136 nM
COc1cncc(-c2ccc(NCCNC(C)C)c(C3CCN(c4ncnc5c4C(C)C(=O)N5)CC3)n2)c1 (stereo not shown) [Compound 15, 4-(4-(5-((2-(Isopropylamino)ethyl)amino)-5′-methoxy-[2,3′-bipyridin]-6-yl)piperidin-1-yl)-5-methyl-5H-pyrrolo[2,3-d]pyrimidin-6(7H)-one]	1.1 nM	0.7 nM	2.1 nM	122 nM
